The source of these data is patent US9604947B2, “Substituted 5-imino-1,2,4-thiadiazoles that can be used to treat neurodegenerative diseases” (CONSEJO SUPERIOR DE INVESTIGACIONES CIENTIFICAS (CSIC), priority 2009, dated 2017).

Counter-ions that a name gives are not always drawn. Like-named read-outs stand apart in the source and are kept apart here.

For the assay, the target named is T1, PDE7A1 (Homo sapiens, UniProt Q13946).
T1 construct: purchased Calbiochem 524751
In words: Determination of PDE7 inhibition (SPA, [3H]cAMP). Format: biochemical. Particulars: for IC50: read-out: IC50 (PDE7A). The method, then:
PDE-7 inhibition was performed with a commercial kit for the determination of phosphodiesterase activity (GE Healthcare Life Sciences, cat#TRKQ7090).
The compounds to be evaluated were incubated (in concentrations between 0.1 nM and 100 μM) in presence of 0.02 U/well of PDE7A1 (Calbiochem cat#524751) and 0.05 μCi of [^3H] cAMP, for 20 min at 30° C. in the assay buffer of kit (total volume=100 μl).
After this time, 50 μl of a suspension of 20 mg/ml microspheres of SPA of Ytrium silicate were added and was maintained under stirring at room temperature for 60 min. Finally, the plate was settled for 20 min and radioactivity was detected in a Microbeta Trilux reader.
In every assay there were included two points without PDE7A1 (blank) and two points with PDE7A1 without inhibitors (control).
Data Analysis: All the compounds were evaluated firstly at the concentration of 10 μM and the percentage of PDE7A1 inhibition was calculated, according to the following formula (cpm=counts per minute): % Inhibition=((cpm control−cpm sample)×100)/(cpm control−cpm blank assay).
For those compounds with % inhibition values above 45% it was calculated its inhibitory potency (IC50) building the dose-response curve.
The data were adjusted with the software Prism v 2.1 (GraphPad Software) using the non lineal fitting.

[1] abbreviates: 1,2,4-thiadiazoles-5-imino substituted as hydrobromides.
Setting [2] is: 1,2,4-thiadiazoles-5-imino substituted as hydrochlorides.

T1 sequence (Q13946 whole entry): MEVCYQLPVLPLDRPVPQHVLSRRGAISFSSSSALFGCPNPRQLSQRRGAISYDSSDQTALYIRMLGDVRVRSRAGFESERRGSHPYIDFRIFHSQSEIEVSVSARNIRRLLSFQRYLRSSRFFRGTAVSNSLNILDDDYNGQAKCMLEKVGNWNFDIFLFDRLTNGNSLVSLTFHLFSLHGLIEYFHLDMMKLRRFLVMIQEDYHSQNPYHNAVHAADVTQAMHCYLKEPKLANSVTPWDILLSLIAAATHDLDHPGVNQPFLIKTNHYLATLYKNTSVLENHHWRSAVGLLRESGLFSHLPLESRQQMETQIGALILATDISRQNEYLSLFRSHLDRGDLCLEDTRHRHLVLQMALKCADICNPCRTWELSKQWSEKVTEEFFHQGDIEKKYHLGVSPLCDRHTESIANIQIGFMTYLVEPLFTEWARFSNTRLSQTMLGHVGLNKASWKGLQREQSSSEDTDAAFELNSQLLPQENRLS

In general, IC50 refers to the concentration at which inhibition is half-maximal. As to `c1ccc(-c2nc(=NCc3cccnc3)sn2-c2cccc3ccccc23)cc1` [2-(1-Naphthyl)-3-phenyl-5-(3-pyridylmethylimino)-2,5-dihydro-1,2,4-thiadiazole dihydrobromide], the IC50 under setting [1] was 870 nM. With `O=[N+]([O-])c1ccc(-n2sc(=NCc3cccnc3)nc2-c2ccccc2)cc1` [2-(4-Nitrophenyl)-3-phenyl-5-(3-pyridinylmethylimino)-2,5-dihydro-1,2,4-thiadiazole dihydrobromide], under setting [1], the half-maximal inhibitory concentration (IC50) was determined as 840 nM. Take `c1ccc(-n2sc(=NCc3cccnc3)nc2-c2cccc3ccccc23)cc1` [3-(1-Naphthyl)-2-phenyl-5-(3-pyridylmethylimino)-2,5-dihydro-1,2,4-thiadiazole dihydrobromide]: the IC50 under setting [1] came to 1080 nM.

Take `c1ccc(-n2sc(=NCc3cccnc3)nc2-c2cccc3ccccc23)cc1` [3-(1-Naphthyl)-2-phenyl-5-(3-pyridylmethylimino)-2,5-dihydro-1,2,4-thiadiazole hydrochloride]: the concentration for half-maximal inhibition (IC50) under setting [2] worked out at 1500 nM.

Consider `CCCCCN=c1nc(-c2ccc(OC)cc2)n(-c2ccccc2)s1` [3-(4-Methoxyphenyl)-5-pentylimino-2-phenyl-2,5-dihydro-1,2,4-thiadiazole hydrobromide], for which the half-inhibitory concentration (IC50) under setting [1] came out at 810 nM. `CCCCCN=c1nc(-c2ccc(OC)cc2)n(-c2ccccc2)s1` [3-(4-Methoxyphenyl)-5-pentylimino-2-phenyl-2,5-dihydro-1,2,4-thiadiazole hydrochloride]: the IC50 under setting [2] worked out at 3700 nM. As usually defined, the inhibition is how much of the control response was suppressed. Take `FC(F)(F)c1ccc(-c2nc(=NCc3cccnc3)sn2-c2ccccc2)cc1` [3-(4-Trifluoromethylphenyl)-2-phenyl-5-(3-pyridylmethylimino)-2,5-dihydro-1,2,4-thiadiazole dihydrobromide]: under “read-out: % inhibition of PDE7A at 10 μM, hydrobromides, at 10 μM”, the inhibition at 10 µM stood at 87%. `OCCN=c1nc(-c2ccccc2)n(-c2cccc3ccccc23)s1` [5-(2-Hydroxyethylimino)-2-(1-naphthyl)-3-phenyl-2,5-dihydro-1,2,4-thiadiazole hydrobromide]: the IC50 under setting [1] worked out at 2200 nM. Same read-out and setting: as for `c1ccc(-c2nc(=NCCN3CCOCC3)sn2-c2ccccc2)cc1` [5-(2-Morpholinethylimino)-2,3-diphenyl-2,5-dihydro-1,2,4-thiadiazole dihydrobromide], the figure is 1590 nM; as for `CCOC(=O)CN=c1nc(-c2ccccc2)n(-c2ccc([N+](=O)[O-])cc2)s1` [5-Ethoxycarbonylmethylimino-2-(4-nitrophenyl)-3-phenyl-2,5-dihydro-1,2,4-thiadiazole hydrobromide], 790 nM. `CCOC(=O)CN=c1nc(-c2ccccc2)n(-c2ccccc2)s1` [R1=Ph, R2=Ph, R3=CH2CO2Et (free base), 5-Ethoxycarboximethylimino-2,3-diphenyl-2,5-dihydro-1,2,4-thiadiazole]: under “free bases, at 10 μM”, the “% inhibition of PDE7A at 10 μM” value amounted to 6%@10. Regarding `c1ccc(-c2nc(=NC3CCCCC3)sn2-c2ccccc2)cc1` [R1=Ph, R2=Ph, R3=Cy (hydrobromide)], under setting [1], the IC50 amounted to 1640 nM.

For `N=c1nc(-c2ccccc2)n(-c2ccccc2)s1` [R1=Ph, R2=Ph, R3=H (hydrobromide)], the concentration for half-maximal inhibition (IC50) under setting [1] was determined as 1020 nM. For the molecule `c1ccc(N=c2nc(-c3ccccc3)n(-c3ccccc3)s2)cc1` [R1=Ph, R2=Ph, R3=Ph (free base), 2,3-Diphenyl-5-phenylimino-2,5-dihydro-1,2,4-thiadiazole], under “1,2,4-thiadiazoles-5-imino substituted as free bases”, the IC50 came to 3520 nM. For the molecule `c1ccc(N=c2nc(-c3ccccc3)n(-c3ccccc3)s2)cc1` [R1=Ph, R2=Ph, R3=Ph (hydrobromide), 2,3-Diphenyl-5-phenylimino-2,5-dihydro-1,2,4-thiadiazole hydrobromide], under setting [1], the IC50 worked out at 3030 nM. As for `CCCCCN=c1nc(-c2ccccc2)n(-c2ccccc2)s1` [R1=Ph, R2=Ph, R3=n-Pent (hydrobromide), 5-Pentylimino-2,3-diphenyl-2,5-dihydro-1,2,4-thiadiazole hydrobromide], the IC50 under setting [1] came to 1440 nM. `COc1ccc(-c2nc(=Nc3ccccc3)sn2-c2ccccc2)cc1` [R1=pOMePh, R2=Ph, R3=Ph (hydrobromide)]: under setting [1], the IC50 was 4360 nM.
